Data from publication PMC11278016, “Discovery of Prenyltransferase-Guided Hydroxyphenylacetic Acid Derivatives from Marine Fungus Penicillium sp. W21C371” (Marine Drugs, 2024).

Key:
[1] = target: Escherichia coli β-glucuronidase (EcGUS) (Escherichia coli, UniProt P05804); assay: EcGUS inhibition assay; format: biochemical; details: for IC50: EcGUS inhibition, mean ± SD, three independent experiments; for Ki′ (inhibition constant of the enzyme–substrate complex): EcGUS–substrate complex, secondary plot of Y-intercept versus [I]; for type of inhibition: Lineweaver–Burk plots; for Ki: free EcGUS, secondary plot of slope versus [I], Lineweaver–Burk, read-out: Ki (inhibition constant of the enzyme); for inhibition at 100 µM: preliminary screening at a concentration of 100 μM, read-out: relative inhibitory rate
Sequence of Escherichia coli β-glucuronidase (EcGUS) (P05804 whole entry): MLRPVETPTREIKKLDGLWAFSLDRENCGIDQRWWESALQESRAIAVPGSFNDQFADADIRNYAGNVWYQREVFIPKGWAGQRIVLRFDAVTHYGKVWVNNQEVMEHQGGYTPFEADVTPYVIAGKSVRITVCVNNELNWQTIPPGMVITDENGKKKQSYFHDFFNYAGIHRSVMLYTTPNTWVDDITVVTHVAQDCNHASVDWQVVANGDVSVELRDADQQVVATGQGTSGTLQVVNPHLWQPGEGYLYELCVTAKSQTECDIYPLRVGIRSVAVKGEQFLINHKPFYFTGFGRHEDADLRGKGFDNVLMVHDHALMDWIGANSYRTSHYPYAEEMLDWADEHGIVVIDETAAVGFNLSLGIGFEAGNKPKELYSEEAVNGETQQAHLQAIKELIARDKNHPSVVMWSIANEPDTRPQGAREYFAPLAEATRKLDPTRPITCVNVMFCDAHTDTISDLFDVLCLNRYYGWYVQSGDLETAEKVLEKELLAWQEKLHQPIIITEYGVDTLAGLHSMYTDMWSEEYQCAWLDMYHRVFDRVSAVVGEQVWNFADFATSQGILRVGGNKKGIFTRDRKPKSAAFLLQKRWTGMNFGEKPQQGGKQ
Protocol: All isolates 1–17 were evaluated for their in vitro inhibitory activity against EcGUS, a potential target for the treatment of drug-induced gastrointestinal disorders, employing D-saccharic acid 1,4-lactone (DSL) as the positive control. […] In view of the potent inhibitory activity of 2 and 3 against EcGUS, their kinetic mechanisms of inhibition were determined using Lineweaver–Burk plots (Figure 5 and Table S1). The inhibition constants of the enzyme Ki and the enzyme–substrate complex Ki^′ were obtained by secondary plots of “slope versus [I]” and “Y-intercept versus [I]”, respectively. […] As a mixed-type inhibitor of EcGUS, 3 was supposed to bind either the free EcGUS or the EcGUS–substrate complex. […] To the best of our knowledge, 2 and 3 represent the first citridone and ergosterol derivatives with potent EcGUS-inhibitory activity. However, 2 and 3 were obtained in limited amount in the present study, preventing the in vivo evaluation of their EcGUS inhibition activity. The optimization of the fermentation and separation processes with the aim of increasing the yields of 2 and 3 is underway, which may help to accumulate greater amounts of the two compounds for further in-depth pharmacological studies.
Optical rotations were obtained with a Rudolph Research Autopol III automatic polarimeter. IR spectra were recorded on a Thermo Nicolet 6700 FT-IR microscope instrument (FT-IR microscope transmission) in KBr pellets. UV spectra were measured on a TU-1900 spectrometer (Persee, Beijing, China). Meanwhile, 1D and 2D-NMR spectra were obtained at 600 MHz for ^1H and 150 MHz for ^13C on a Bruker Avance 600 spectrometer, with solvent peaks used as references. HRESIMS data were measured on an Agilent-6210-LC/TOF mass spectrometer (Agilent Technologies, Inc., Santa Clara, CA, USA). EcGUS-inhibitory activity was measured spectrophotometrically using a SpectraMax Plus 384 microplate reader (Molecular Devices, San Jose, CA, USA). Column chromatography (CC) was performed on silica gel (SiO2; 200–300 mesh; Qingdao Marine Chemical Co., Ltd.), ODS C-18 gel (50 mm; YMC Co., Ltd., Kyoto, Japan), and MCI CHP20P gel (75–150 μm, Tokyo, Japan). Semi-preparative HPLC was performed on an Cosmosil 5C18-MS-II column (5 μm, 250 × 10 mm) with a Shimadzu LC-20AT system eluting with methanol/water or acetonitrile/water at a flow rate of 3 mL/min. Chiral separation was performed on a Chiralpak AD-H column (5 μm, 4.6 × 250 mm). Thin layer chromatography (TLC) was performed on precoated silica gel GF254 plates (Qingdao Marine Chemical Co., Ltd., Qingdao, China) and visualized by UV light and/or spraying with 10% H2SO4 in 95% EtOH, followed by heating. All solvents used were of analytical grade and obtained from commercially available sources. All reagents used for biological evaluation were obtained from Sigma-Aldrich (St. Louis, MO, USA).
The EcGUS inhibition assay was performed according to the method previously reported, employing DSL as the positive control. The results are presented as means ± SD for three independent experiments.

Candida albicans = test system: Candida albicans; set-up: method as in PMID 19160522; details: against Candida albicans; cited from earlier work
[2] = test system: methicillin-resistant Staphylococcus aureus (MRSA); set-up: method as in PMID 24643052; details: MRSA virulence factor; cited from earlier work

| Structure (SMILES) | IC50 [1] | Ki′ (inhibition constant of the enzyme–substrate complex) [1] | type of inhibition [1] | Ki [1] | Vmax ([1]; inhibitor concentration 0.02 mM) | Vmax ([1]; inhibitor concentration 0.04 mM) | Vmax ([1]; inhibitor concentration 0.08 mM) | inhibition at 100 µM [1] | potentiation of miconazole activity (Candida albicans) | inhibition of staphyloxanthin biosynthesis [2] | Vmax ([1]; inhibitor concentration 0.015 mM) | Vmax ([1]; inhibitor concentration 0.030 mM) | Vmax ([1]; inhibitor concentration 0.050 mM) |
| --- | --- | --- | --- | --- | --- | --- | --- | --- | --- | --- | --- | --- | --- |
| CC1=CC2(C)Oc3c(-c4ccccc4)c[nH]c(=O)c3C2C1C (stereo not shown) [Compound 2, citridone A] | 44.6 ± 0.84 µM | 69.20 µM | non-competitive inhibitor | 76.3 µM | 38.33 ± 2.97 mg/μmol⋅min | 32.36 ± 3.11 mg/μmol⋅min | 23.58 ± 2.49 mg/μmol⋅min | > 60% | potentiator of miconazole | inhibit the biosynthesis of staphyloxanthin |  |  |  |
| CC(=C[C@@H](C)[C@H]1CC[C@@H]2[C@]1(C)CC=C1[C@]23C=C[C@]2(C[C@@H](O)CC[C@]12C)OO3)[C@H](C)C(C)C [Compound 3, 5α,8α-epidioxy-23,24(R)-dimethylcholesta-6,9(11),22-trien-3β-ol] | 21.6 ± 0.76 µM | 48.80 µM | mixed-type | 89 µM |  |  |  | > 60% |  |  | 29.05 ± 1.14 mg/μmol⋅min | 22.03 ± 1.06 mg/μmol⋅min | 18.22 ± 0.64 mg/μmol⋅min |
| O=C(O)[C@@H](O)[C@H]1OC(=O)[C@H](O)[C@H]1O [DSL, D-saccharic acid 1,4-lactone, reference compound] | 47.9 ± 0.89 µM |  |  |  |  |  |  |  |  |  |  |  |  |
